Entries after “also recorded” stand apart in the source; their conditions may differ.
Tests used:
endogenous BRD9 = target: T1, endogenous BRD9 (Homo sapiens, UniProt Q9H8M2); experiment: Western blot dose response of endogenous BRD9 degradation in cancer cell lines of different lineage; type: cell-based; details: for potency of endogenous BRD9 degradation (western blot): 6 hours
T1 sequence (Q9H8M2 1-597): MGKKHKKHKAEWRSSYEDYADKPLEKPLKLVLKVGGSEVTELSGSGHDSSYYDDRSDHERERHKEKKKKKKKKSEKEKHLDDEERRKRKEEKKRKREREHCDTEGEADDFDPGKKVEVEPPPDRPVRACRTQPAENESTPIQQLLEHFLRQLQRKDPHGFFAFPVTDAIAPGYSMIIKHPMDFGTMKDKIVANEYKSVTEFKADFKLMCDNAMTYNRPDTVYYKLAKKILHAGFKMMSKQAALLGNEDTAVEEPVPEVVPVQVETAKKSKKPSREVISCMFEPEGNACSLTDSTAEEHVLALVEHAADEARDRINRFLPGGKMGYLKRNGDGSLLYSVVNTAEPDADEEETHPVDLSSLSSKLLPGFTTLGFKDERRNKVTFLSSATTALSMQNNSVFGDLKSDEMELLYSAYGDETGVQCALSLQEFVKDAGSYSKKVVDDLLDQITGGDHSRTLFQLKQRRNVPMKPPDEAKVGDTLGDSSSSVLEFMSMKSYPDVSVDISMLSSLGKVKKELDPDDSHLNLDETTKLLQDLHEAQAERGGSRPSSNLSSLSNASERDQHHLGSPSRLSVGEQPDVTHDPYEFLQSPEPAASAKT
Method: Compound D1 and Compound S-D1 Dose Response Experiments in Multiple Cell Lines of Different Lineage. To evaluate the efficacy of compound S-D1 ((S)-enantiomer) and compound D1 (racemic) to degrade BRD9 across different cancer lineages (listed in Table 19), dose response experiments were performed in SYO-1, EOL-1, MD-MBA-231, OVCAR8, and PC-9 cell lines. After cell treatment, BRD9 protein levels were assessed by western blot analyses.
Cells grown in flasks to log phase growth were washed with PBS and dissociated by adding TrypLE™ Express (Foghorn) or Trypsin-EDTA 0.25% (Pharmaron). Collected cells were resuspended in their respective cell culture media, counted, and seeded at the indicated cell density in 6-well plates. Two wells were allocated per sample. Plates were incubated at 37° C. with 5% CO2 overnight.
The next day, compound was added to a final concentration as indicted in FIGS. 32B, 32C, and 32D with 3-fold dilution steps, with the final DMSO content of 0.1% (v/v) matching the untreated control. After 6 hours of incubation, cells were harvested, resuspended in PBS, and centrifuged at 5,000 rpm for 5 minutes. After being washed twice with PBS, the resulting cell pellets were stored at −80° C.
Cell lines and cell treatment procedures are highlighted in Table 19 and specific details about western blot procedures are listed in Table 20. The western blot procedure was as described above.

BRD9 = target: T2, BRD9 (Homo sapiens, UniProt Q9H8M2); experiment: Pharmacodynamic activity in SYO-1 xenograft model (tumor BRD9 western blot); type: in vivo, mice; design: from tissue; host or cells: SYO-1 xenograft tumours in BALB/c nude or NOD SCID mice; details: for BRD9 protein levels depleted by: 20% SBECD
T2 sequence (Q9H8M2 1-597): T1 sequence (Q9H8M2 1-597)
Method: Method. The SYO-1 tumor cells were maintained in vitro as adherent cells in Dulbecco's Modified Eagle Medium (DMEM) supplemented with 10% fetal bovine serum at 37° C. in an atmosphere of 5% CO2 in air. The cells growing in an exponential growth phase were harvested and counted for tumor inoculation. BALB/c Nude mice (Shanghai Lingchang biological science) were inoculated subcutaneously on the right flank with (5×10^6) in 0.1 mL of phosphate buffered saline (PBS). The treatment-(described in table 6)—was started on day 19 after tumor inoculation, when the average tumor size reached 499 mm^3.
Mice were treated with racemic D1, 1 mg/kg, i.p. for 4 weeks, mice were euthanized, and tumors collected 1, 4, 8, 24, 48 and 72-hour post last dose. Tumors were lysed with 1×RIPA lysis buffer (Boston BioProducts, BP-115D) with protease and phosphatase protein inhibitor (Roche Applied Science #04906837001 & 05892791001). Equal amount of lysate (30 ug) were loaded in 4-12% Bis-Tris Midi Protein Gels in 1×MOPS buffer; samples ran at 120 V for 120 min. Proteins was transferred to membrane (NC) with TransBlot at 250 mA for 150 minute, then membranes were blocked with Odyssey Blocking buffer for 1 hour at room temperature. Membranes were hybridized overnight in cold room with primary antibodies. Images acquired using Li-COR imaging system (Li-COR Biotechnology, Lincoln, Nebraska).
Further study. The other study examined a range of compound D1 dose levels (0.05, 0.25, 1 or 5 mg/kg) formulated in a vehicle of 20% SBECD for tumor BRD9 protein levels up to 144 hours post dose. […] BRD9 protein levels were still depleted by 83.4% and 73.2% at 120 hours (5 days) and 144 hours (6 days), respectively, after a single IV administration of 5 mg/kg of compound D1, which corresponds to ˜2.5 mg/kg of compound S-D1.

SYO-1 tumor = experiment: Intermittent dosing schedules, IV, SYO-1 xenograft efficacy; type: in vivo, mice; details: for Tumor Size (mm^3) on Day 24: SYO-1 tumor-bearing NOD SCID mice, Mean ± SEM
Method: The objective of this study was to provide proof-of-concept of anti-tumor efficacy with intermittent dosing schedules for compound S-D1 by IV administration. Groups of female SYO-1 tumor-bearing NOD SCID mice (n=10/group) were dosed IV with vehicle, compound D1 or compound S-D1 for 24 days according to treatments and dosing schedules shown in Table 10. Compound D1 was formulated in 10% DMSO/40% PEG400/50% water and compound S-D1 was formulated in 20% SBECD in 5 mM citrate buffer, final pH was adjusted to 5 with 1 N NaOH. For the compound S-D1 treatment groups, plasma samples were collected at designated time points following the last dosing. Plasma samples were acidified to stabilize the compound right after collection and analyzed for compound S-D1 concentrations.

[1] = 1 mg/kg BIW IV, 24 days (compound S-D1)
[2] = 1 mg/kg BIW IV, 24 days (compound D1)

Row | SMILES | BRD9 degradation activity when proteasome blocked (endogenous BRD9; with 1 μM Bortezomib, a proteasome inhibitor (FIG. 32D, EOL-1 cells)) | Pharmacodynamic activity: tumor BRD9 protein level by western blot (BRD9; SYO-1 xenograft, BALB/c Nude mice, single dose i.v. (Table 6), listed as Enantiomer 2) | T/C (%) (SYO-1 tumor; 0.05 mg/kg BIW IV, 24 days) | TGI (%) (SYO-1 tumor; 0.05 mg/kg BIW IV, 24 days) | Tumor Size (mm^3) on Day 24 (SYO-1 tumor; 0.05 mg/kg BIW IV, 24 days) [mm^3] | T/C (%) (SYO-1 tumor; [1]) | TGI (%) (SYO-1 tumor; [1]) | Tumor Size (mm^3) on Day 24 (SYO-1 tumor; [1]) [mm^3] | T/C (%) (SYO-1 tumor; 2 mg/kg QW IV, 24 days) | TGI (%) (SYO-1 tumor; 2 mg/kg QW IV, 24 days) | Tumor Size (mm^3) on Day 24 (SYO-1 tumor; 2 mg/kg QW IV, 24 days) [mm^3] | tumor response (SYO-1 tumor; 0.25 or 1 mg/kg twice weekly IV, SYO-1 tumor) | potency of endogenous BRD9 degradation (western blot) (endogenous BRD9; MDA-MB-231 (breast cancer), OVCAR8 (ovarian cancer) and EOL1 cells) | potency of endogenous BRD9 degradation (western blot) (endogenous BRD9; PC-9 (EGFR mutant lung cancer) cells) | tumor BRD9 protein level response (BRD9; 0.05, 0.25, 1 or 5 mg/kg, up to 144 hours post dose) | BRD9 protein levels depleted by (BRD9; 120 hours (5 days) after a single IV administration of 5 mg/kg) [%] | BRD9 protein levels depleted by (BRD9; 144 hours (6 days) after a single IV administration of 5 mg/kg) [%] | T/C (%) (SYO-1 tumor; [2]) | TGI (%) (SYO-1 tumor; [2]) | Tumor Size (mm^3) on Day 24 (SYO-1 tumor; 1 mg/kg BIW IV, 24 days) [mm^3]
1 | COc1cc(-c2cn(C)c(=O)c3cnc(N4CCC4)cc23)cc(OC)c1CN1CCC(CN2CCC3(CC2)CN(c2ccc4c(c2)C(=O)N([C@H]2CCC(=O)NC2=O)C4)C3)CC1 (single isomer, unassigned) [Compound S-D1] | largely abrogated | significant activity; also recorded: degraded BRD9 up to 72 hours after a single dose; also recorded: equipotent to racemic compound D1 | 58.2 | 41.8 | 1946 ± 123 | 8.1 | 91.9 | 280 ± 37 | 10.1 | 89.9 | 341 ± 38 | tumor stasis | – | – | – | – | – | – | – | –
2 | COc1cc(-c2cn(C)c(=O)c3cnc(N4CCC4)cc23)cc(OC)c1CN1CCC(CN2CCC3(CC2)CN(c2ccc4c(c2)C(=O)N(C2CCC(=O)NC2=O)C4)C3)CC1 (racemic) [Compound D1, 3-[6-(7-[[1-([4-[6-(azetidin-1-yl)-2-methyl-1-oxo-2,7-naphthyridin-4-yl]-2,6-dimethoxyphenyl]methyl)piperidin-4-yl]methyl]-2,7-diazaspiro[3.5]nonan-2-yl)-1-oxo-3H-isoindol-2-yl]piperidine-2,6-dione] | – | – | – | – | – | – | – | – | – | – | – | – | comparable potency | reduced potency | robust and dose- and time-dependent | 83.4 | 73.2 | 12.6 | 87.4 | 426 ± 49

Reference: patent US20240325370A1, “THERAPEUTIC REGIMENS OF A DEGRADER OF BRD9” (FOGHORN THERAPEUTICS INC., priority 2021, published 2024)
